Test results as given in ChEMBL document CHEMBL4033735, “A potent and selective natriuretic peptide receptor-3 blocker 11-mer peptide created by hybridization of musclin and atrial natriuretic peptide” (Bioorg Med Chem Lett, 2017).
Square brackets hold non-standard residues; d marks the D form. Peptide text beside a SMILES is read from it. Cha = N[C@@H](CC1CCCCC1)C(=O)O

Columns and labels:
[1] = biological target: T1, Atrial natriuretic peptide receptor 1 (Homo sapiens, UniProt P16066); assay: Displacement of [125I]-human ANP from human NPR-1 incubated for 2 hrs by top count method
T1 sequence (P16066 whole entry): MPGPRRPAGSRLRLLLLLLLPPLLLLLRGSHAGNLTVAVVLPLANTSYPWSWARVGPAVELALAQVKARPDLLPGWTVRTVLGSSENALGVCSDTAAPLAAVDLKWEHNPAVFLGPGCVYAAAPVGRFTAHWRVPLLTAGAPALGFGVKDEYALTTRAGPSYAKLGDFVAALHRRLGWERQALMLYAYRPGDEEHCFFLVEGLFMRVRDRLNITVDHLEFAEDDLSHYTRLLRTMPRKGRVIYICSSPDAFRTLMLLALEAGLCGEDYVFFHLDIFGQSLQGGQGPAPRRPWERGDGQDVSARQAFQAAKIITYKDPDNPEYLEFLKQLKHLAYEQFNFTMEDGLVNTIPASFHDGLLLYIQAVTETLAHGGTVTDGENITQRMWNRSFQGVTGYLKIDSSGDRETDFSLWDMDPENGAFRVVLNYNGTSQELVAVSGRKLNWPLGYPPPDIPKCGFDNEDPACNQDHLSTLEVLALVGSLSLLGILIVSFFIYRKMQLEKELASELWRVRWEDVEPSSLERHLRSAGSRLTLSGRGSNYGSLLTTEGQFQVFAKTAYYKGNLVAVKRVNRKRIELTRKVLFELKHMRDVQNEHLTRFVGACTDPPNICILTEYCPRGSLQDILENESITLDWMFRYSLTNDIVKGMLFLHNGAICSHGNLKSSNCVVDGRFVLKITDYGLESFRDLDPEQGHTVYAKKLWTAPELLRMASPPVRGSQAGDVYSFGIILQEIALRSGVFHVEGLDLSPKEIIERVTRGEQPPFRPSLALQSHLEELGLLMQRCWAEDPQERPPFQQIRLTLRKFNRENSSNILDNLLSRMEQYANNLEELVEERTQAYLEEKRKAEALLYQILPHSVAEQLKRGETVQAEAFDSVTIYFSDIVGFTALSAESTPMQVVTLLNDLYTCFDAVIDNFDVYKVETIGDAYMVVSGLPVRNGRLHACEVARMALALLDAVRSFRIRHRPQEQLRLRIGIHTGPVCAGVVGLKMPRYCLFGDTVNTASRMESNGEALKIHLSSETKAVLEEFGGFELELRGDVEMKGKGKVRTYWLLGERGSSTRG

[2] = biological target: T2, Atrial natriuretic peptide receptor 3 (Homo sapiens, UniProt P17342); assay: Displacement of [125I]-human ANP from His-tagged and Fc fragment containing human NPR-3 extracellular domain expressed in FreeStyle 293 cells incubated for 2 hrs by top count method; type: cell-based
T2 sequence (P17342 whole entry): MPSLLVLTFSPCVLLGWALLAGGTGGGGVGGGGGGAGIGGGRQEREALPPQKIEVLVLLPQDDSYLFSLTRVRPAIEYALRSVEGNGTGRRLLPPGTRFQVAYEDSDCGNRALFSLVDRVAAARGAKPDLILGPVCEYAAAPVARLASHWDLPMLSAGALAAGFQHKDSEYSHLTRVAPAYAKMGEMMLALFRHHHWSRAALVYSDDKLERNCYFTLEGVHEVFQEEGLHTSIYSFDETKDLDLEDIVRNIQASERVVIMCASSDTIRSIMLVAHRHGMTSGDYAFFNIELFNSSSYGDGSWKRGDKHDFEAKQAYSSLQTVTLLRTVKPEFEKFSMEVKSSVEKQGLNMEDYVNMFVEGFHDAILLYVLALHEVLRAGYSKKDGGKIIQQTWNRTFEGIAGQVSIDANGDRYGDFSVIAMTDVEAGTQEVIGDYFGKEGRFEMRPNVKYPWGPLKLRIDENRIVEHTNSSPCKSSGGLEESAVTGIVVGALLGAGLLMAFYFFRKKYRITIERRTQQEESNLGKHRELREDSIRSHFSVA

[3] = Stability in 10% C57BL/6J mouse serum/phosphate-buffered saline assessed as residual parent compound remaining at 1 mM after 30 mins at 37 degC by HPLC method; type: ADME, cell-free; details: 10% mouse serum in phosphate-buffered saline, read-out: Stability
[4] = Stability in 10% C57BL/6J mouse serum/phosphate-buffered saline assessed as residual parent compound remaining at 1 mM after 60 mins at 37 degC by HPLC method; type: ADME, cell-free; details: 10% mouse serum in phosphate-buffered saline, read-out: Stability

| Structure (SMILES) | IC50 [1] [nM] | IC50 [2] [nM] | remaining at 0.5 h, 1000 µM [3] [%] | remaining at 1 h, 1000 µM [4] [%] |
| --- | --- | --- | --- | --- |
| CC[C@H](C)[C@H](NC(=O)[C@H](CCCNC(=N)N)NC(=O)[C@H](CC(=O)O)NC(=O)[C@@H](NC(=O)[C@H](CCCNC(=N)N)NC(=O)CNC(=O)CNC(=O)[C@H](CC1CCCCC1)NC(=O)CNC(=O)[C@H](CO)NC(=O)[C@H](CO)NC(=O)[C@@H](N)CCCNC(=N)N)[C@@H](C)CC)C(=O)NCC(N)=O (H-RSSG[Cha]GGRIDRIG-NH2) | > 1000 | 7.8 |  |  |
| CC[C@H](C)[C@H](NC(=O)[C@H](CCCNC(=N)N)NC(=O)[C@H](CC(=O)O)NC(=O)[C@@H](NC(=O)[C@H](CCCNC(=N)N)NC(=O)CNC(=O)CNC(=O)[C@H](CC1CCCCC1)NC(=O)CN)[C@@H](C)CC)C(=O)NCC(N)=O (H-G[Cha]GGRIDRIG-NH2) | > 1000 | 13 |  |  |
| CC[C@H](C)[C@@H]1NC(=O)[C@H](CCCNC(=N)N)NC(=O)[C@H](CC(=O)O)NC(=O)[C@H](CCSC)NC(=O)[C@H](CCCNC(=N)N)NC(=O)CNC(=O)CNC(=O)[C@H](Cc2ccccc2)NC(=O)[C@@H](NC(=O)[C@H](CO)NC(=O)[C@H](CO)NC(=O)[C@H](CCCNC(=N)N)NC(=O)[C@H](CCCNC(=N)N)NC(=O)[C@H](CC(C)C)NC(=O)[C@@H](N)CO)CSSC[C@@H](C(=O)N[C@@H](CC(N)=O)C(=O)N[C@@H](CO)C(=O)N[C@@H](Cc2ccccc2)C(=O)N[C@@H](CCCNC(=N)N)C(=O)N[C@@H](Cc2ccc(O)cc2)C(=O)O)NCC(=O)NC(=O)[C@H](CC(C)C)NC(=O)CNC(=O)[C@H](CO)NC(=O)[C@H](CCC(N)=O)NC(=O)[C@H](C)NC(=O)CNC1=O | 0.094 | 0.058 |  |  |
| CC[C@H](C)[C@H](NC(=O)[C@H](CCCNC(=N)N)NC(=O)[C@H](CC(=O)O)NC(=O)[C@@H](NC(=O)[C@H](CCCNC(=N)N)NC(=O)CNC(=O)CNC(=O)[C@H](CC1CCCCC1)NC(=O)CNC(=O)[C@H](CO)NC(=O)[C@H](N)Cc1ccccc1)[C@@H](C)CC)C(=O)NCC(N)=O | > 1000 | 0.12 | 100 | 80 |
| CC[C@H](C)[C@H](NC(=O)[C@H](CCCNC(=N)N)NC(=O)[C@H](CC(=O)O)NC(=O)[C@@H](NC(=O)[C@H](CCCNC(=N)N)NC(=O)CNC(=O)CNC(=O)[C@@H](N)CC1CCCCC1)[C@@H](C)CC)C(=O)NCC(N)=O (H-[Cha]GGRIDRIG-NH2) | > 1000 | 11 |  |  |
| CC[C@H](C)[C@H](NC(=O)[C@H](CCCNC(=N)N)NC(=O)[C@H](CC(=O)O)NC(=O)[C@@H](NC(=O)[C@H](CCCNC(=N)N)NC(=O)CNC(=O)CNC(=O)[C@H](CC1CCCCC1)NC(=O)[C@@H](N)CS)[C@@H](C)CC)C(=O)NCC(N)=O (H-C[Cha]GGRIDRIG-NH2) | 120 | 1.5 |  |  |
| CC[C@H](C)[C@H](NC(=O)[C@H](CCCNC(=N)N)NC(=O)[C@H](CC(=O)O)NC(=O)[C@@H](NC(=O)[C@@H]1CCCN1C(=O)CNC(=O)CNC(=O)[C@H](CC1CCCCC1)NC(=O)CNC(=O)[C@H](CO)NC(=O)[C@H](N)Cc1ccccc1)[C@@H](C)CC)C(=O)NCC(N)=O | > 1000 | 0.12 |  |  |
| CC[C@H](C)[C@H](NC(=O)[C@H](CCCNC(=N)N)NC(=O)[C@H](CC(=O)O)NC(=O)[C@@H](NC(=O)[C@H](CCCNC(=N)N)NC(=O)CNC(=O)CNC(=O)[C@H](CC1CCCCC1)NC(=O)[C@H]1CCCN1C(=O)[C@H](CO)NC(=O)[C@H](N)Cc1ccccc1)[C@@H](C)CC)C(=O)NCC(N)=O | > 1000 | 0.13 | 80 | 63 |
| CC[C@H](C)[C@H](NC(=O)[C@H](CCCNC(=N)N)NC(=O)[C@H](CC(=O)O)NC(=O)[C@@H](NC(=O)[C@H](CCCNC(=N)N)NC(=O)CNC(=O)CNC(=O)[C@H](CC1CCCCC1)NC(=O)CNC(=O)[C@H](CO)NC(=O)[C@@H](Cc1ccccc1)NC(C)=O)[C@@H](C)CC)C(=O)NCC(N)=O | > 1000 | 0.93 |  |  |
| CC[C@H](C)[C@H](NC(=O)[C@H](CCCNC(=N)N)NC(=O)[C@H](CC(=O)O)NC(=O)[C@@H](NC(=O)[C@H](CCCNC(=N)N)NC(=O)CNC(=O)CNC(=O)[C@H](Cc1ccccc1)NC(=O)[C@H](CS)NC(=O)[C@H](CO)NC(=O)[C@H](CO)NC(=O)[C@@H](N)CCCNC(=N)N)[C@@H](C)CC)C(=O)NCC(=O)N[C@@H](C)C(=O)N[C@@H](CS)C(=O)O (H-RSSCFGGRIDRIGAC-OH) |  | 0.65 |  |  |
| CC[C@H](C)[C@H](NC(=O)[C@H](CCCNC(=N)N)NC(=O)[C@H](CC(=O)O)NC(=O)[C@@H](NC(=O)[C@H](CCCNC(=N)N)NC(=O)CNC(=O)CNC(=O)[C@H](CC1CCCCC1)NC(=O)CNC(=O)[C@H](CO)NC(=O)[C@H](Cc1ccccc1)NC(=O)[C@@H](N)CO)[C@@H](C)CC)C(=O)NCC(N)=O (H-SFSG[Cha]GGRIDRIG-NH2) | > 1000 | 0.52 |  |  |
| CC[C@H](C)[C@H](NC(=O)[C@H](CCCNC(=N)N)NC(=O)[C@H](CC(=O)O)NC(=O)[C@@H](NC(=O)[C@H](CCCNC(=N)N)NC(=O)CNC(=O)CNC(=O)[C@H](CC1CCCCC1)NC(=O)CNC(=O)[C@@H](N)CO)[C@@H](C)CC)C(=O)NCC(N)=O (H-SG[Cha]GGRIDRIG-NH2) | > 1000 | 22 |  |  |
| CC[C@H](C)[C@H](NC(=O)[C@H](CCCNC(=N)N)NC(=O)[C@H](CC(=O)O)NC(=O)[C@@H](NC(=O)[C@H](CCCNC(=N)N)NC(=O)CNC(=O)CNC(=O)[C@H](CC1CCCCC1)NC(=O)[C@H](C)N)[C@@H](C)CC)C(=O)NCC(N)=O (H-A[Cha]GGRIDRIG-NH2) | > 1000 | 13 |  |  |
| CC[C@H](C)[C@H](NC(=O)[C@H](CCCNC(=N)N)NC(=O)[C@H](CC(=O)O)NC(=O)[C@@H](NC(=O)[C@@H]1CCCN1C(=O)CNC(=O)[C@@H](C)NC(=O)[C@H](CC1CCCCC1)NC(=O)[C@H]1CCCN1C(=O)[C@H](CO)NC(=O)[C@@H](Cc1ccccc1)NC(C)=O)[C@@H](C)CC)C(=O)NCC(N)=O | > 1000 | 0.19 |  |  |
| CC[C@H](C)[C@H](NC(=O)[C@H](CCCNC(=N)N)NC(=O)[C@H](CC(=O)O)NC(=O)[C@@H](NC(=O)[C@H](CCCNC(=N)N)NC(=O)CNC(=O)CNC(=O)[C@H](CC1CCCCC1)NC(=O)[C@H](CS)NC(C)=O)[C@@H](C)CC)C(=O)NCC(N)=O (Ac-C[Cha]GGRIDRIG-NH2) | > 1000 | 35 |  |  |
| CC[C@H](C)[C@H](NC(=O)[C@H](CCCNC(=N)N)NC(=O)[C@H](CC(=O)O)NC(=O)[C@@H](NC(=O)[C@H](CCCNC(=N)N)NC(=O)CNC(=O)CNC(=O)[C@H](CC1CCCCC1)NC(C)=O)[C@@H](C)CC)C(=O)NCC(N)=O (Ac-[Cha]GGRIDRIG-NH2) | > 1000 | 54 |  |  |
| CC[C@H](C)[C@H](NC(=O)[C@H](CCCNC(=N)N)NC(=O)[C@H](CC(=O)O)NC(=O)[C@@H](NC(=O)[C@H](CCCNC(=N)N)NC(=O)CNC(=O)[C@@H](C)NC(=O)[C@H](CC1CCCCC1)NC(=O)CNC(=O)[C@H](CO)NC(=O)[C@H](N)Cc1ccccc1)[C@@H](C)CC)C(=O)NCC(N)=O | > 1000 | 0.36 |  |  |
| CC[C@H](C)[C@H](NC(=O)[C@H](CCCNC(=N)N)NC(=O)[C@H](CC(=O)O)NC(=O)[C@@H](NC(=O)[C@H](CCCNC(=N)N)NC(=O)CNC(=O)CNC(=O)[C@H](CC1CCCCC1)NC(=O)[C@@H](N)CO)[C@@H](C)CC)C(=O)NCC(N)=O (H-S[Cha]GGRIDRIG-NH2) | > 1000 | 15 |  |  |
